pIC50, pKd: −log10 of the molar value.
Experiments:
[1] = biological target: T1, ALR2 (AKR1B1, aldose reductase) (Homo sapiens, UniProt P15121); test: ALR2 enzyme assay (in vitro); type: biochemical; conditions: for inhibition at 20 µM: read-out: ALR2 inhibition rate
T1 construct: The plasmid (pET28b, Novagen) containing the open reading frame of the human ALR2 gene; hexa-histidine (cleaved yes); made in house; host or cells: E. coli BL21 gold (DE3)
Experimental: (§1) For the AKR1B1 enzyme assay and SPR measurements, the protein was expressed and purified using the protocol related to the one reported previously. The plasmid (pET28b, Novagen) containing the open reading frame of the human ALR2 gene was kindly provided by Atagenix, Wuhan, Hubei, China. The E. coli strain BL21 gold (DE3) (Novagen) was used to express the hexa-histidine tagged protein after induction with IPTG (Roth) for 16 h at 293 K. The pellet from a 4 L culture was resuspended in a buffer containing 20 mM Tris and 500 mM NaCl (pH 8.0) before being sonicated and centrifuged. A HiTrap chelating HP column (GE Healthcare) was loaded with the supernatant. After a short washing step with a low imidazole concentration, the fusion protein was eluted by applying a gradient of imidazole. The buffer was exchanged with 20mM Tris-HCl, 10 mM NaCl, 1mM EDTA, and the tag cleaved by thrombin (yuanyeBio-Technology Co. Ltd. Shanghai, China). A Hiprep DEAE FastFlow 16/10 column (GE Healthcare) was loaded with the remaining solution. A NaCl gradient was used to elute the ALR2 from the column.
In the first step of the polyol pathway, glucose reduction is accompanied by the conversation of NADPH to NADP, where only NADPH has an obvious spectral absorption around 340 nm and NADP has none. Thus, the decrease in OD340nm can represent the consumption of NADPH. Therefore, we detect the change of OD340nm before and after reaction to screen the effective ARIs or evaluate the AR activity; assays with epalrestat were used as positive controls. Briefly, the incubation system contains 10 µL ALR2 enzyme (20 µg/mL), 80 µL DL-glyceraldehyde (0.16 mmol/L) as the substrate, 1.0 mmol/L NADPH·4Na as a coenzyme, and 0.1 mol/L PBS (pH = 6.2). […] Then, the absorbance was measured using FlexStation 3 Reader (Molecular Devices, San Francisco, CA, USA) at 340 nm. The absorbance of wells treated with PBS and NADPH was considered as 100% (OD1) and the absorbance of wells treated with PBS and DL-glyceraldehyde was considered as 0% (OD2); the inhibitory rate was calculated by the formula ODcompounds − OD2/OD1 − OD2. […]

ALR2 = biological target: T2, ALR2 (Homo sapiens, UniProt P15121); test: Surface plasmon resonance (SPR) binding assay, Biacore T200; conditions: ALR2 immobilized on CM5 chip, PBS-P+ buffer, room temperature; read-out: KD value (binding between ALR2 and compound, SPR)
T2 construct: The plasmid (pET28b, Novagen) containing the open reading frame of the human ALR2 gene; hexa-histidine (cleaved yes); made in house; host or cells: E. coli BL21 gold (DE3)
Experimental: as §1
SPR binding analysis methodology can be used to study molecular interactions. Herein, SPR was applied to measure the interactions between compounds 13/14 and ALR2. Initially, ALR2 was prepared in 10 mM sodium acetate (pH 5.0) and then immobilized covalently by an amine-coupling reaction on a CM5 sensor chip. […]

Row | inhibition at 20 µM [1] [%] | pKd (ALR2) | pIC50 ([1]; recombinant ALR2, DL-glyceraldehyde substrate, NADPH, PBS pH 6.2, 10 min at 25 °C, OD340nm, read-out: IC50 of ALR2 inhibitory activity) | SMILES
1 | > 50 | 4.90 | – | NC1=NC(=O)/C(=C2\CCNC(=O)c3[nH]ccc32)N1 [Compound 13]
2 | > 50 | 5.16 | 4.88 | NC1=NC(=O)/C(=C2/CCNC(=O)c3[nH]ccc32)N1 [Compound 14]
